On the set-up of series [1]: species or system C57BL/6J mice. The settings on record: mouse, in vivo, po. On the procedure: FIG. 3: Effects of 1α,25(OH)2D3 and new ligands (compounds A and B) on calcium levels in serum. (FIG. 3.1) Mice were fed either with vehicle (sesame oil), 1α,25(OH)2D3 2 μg/kg, 2 μg/kg compound A or 2 μg/kg compound B during 7 days. (FIG. 3.2) Mice were fed either with vehicle (Veh), 1α,25(OH)2D3 (D3), or compound A during 4 days. Data are presented as mean±SEM. Significant differences are marked as *p<0.05, ***p<0.01.
Male C57BL/6J mice, 6-7 weeks of age, were obtained from Charles River Laboratories France (l'Arbresle, France). All mice were maintained in a temperature-controlled (23° C.) facility with a 12 h light/dark cycle and were given free access to food and water. The mice were fed the EQ12310 diet from UAR (Villemoison sur Orge, France), which contained 16.8% protein, 73.5% carbohydrate and 4.8% fat. The different VDR agonists were dissolved in sesame oil and administered by oral gavage at the indicated doses. The mice were fasted 4 h before harvesting blood for subsequent Calcium measurements, which were performed as described (1).
Thereafter a detailed dose response (0.2, 0.5, 1, and 2 μg/kg) was performed with both 1α,25(OH)2D3, and compound A (FIG. 3.2). In this study compounds were gavaged during 4 consecutive days.

The target in another series is T1, human VDR (Homo sapiens, UniProt P11473).
T1 construct: an expression plasmid of GAL4 DBD-VDR LBD; expressed in transfected cells; host or cells: 293 EBNA cells
T1 sequence (P11473 127-423 limits assumed): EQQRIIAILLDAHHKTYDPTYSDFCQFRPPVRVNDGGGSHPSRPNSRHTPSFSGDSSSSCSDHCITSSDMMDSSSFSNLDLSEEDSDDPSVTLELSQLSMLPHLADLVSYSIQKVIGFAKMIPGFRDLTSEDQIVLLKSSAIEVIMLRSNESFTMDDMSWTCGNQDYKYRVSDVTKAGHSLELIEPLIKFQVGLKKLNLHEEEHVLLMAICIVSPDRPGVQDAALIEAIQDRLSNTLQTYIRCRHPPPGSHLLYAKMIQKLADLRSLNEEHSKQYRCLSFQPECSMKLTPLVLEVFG
Kind of series: Transfection and transactivation assay (GAL4 DBD-VDR LBD, UAS-TATA-luciferase reporter, 293 EBNA cells). It counts as cell-based. The conditions noted are these: for VDR agonist character: summary statement. An excerpt: FIG. 2: Transcriptional activation of VDR by 1α,25(OH)2D3, compound A and compound B. 293 EBNA cells were transiently transfected with a UAS-TATA-luciferase reporter plasmid and an expression plasmid of GAL4 DBD-VDR LBD and subsequently treated with 1α,25(OH)2D3, compound A (A), and compound B (B) at 10^−10 and 10^−9M. Luciferase activity for each sample was normalized to the β-galactosidase activity. Data is shown as fold induction of agonist induced luciferase activity divided by luciferase activity of vehicle.
The human VDR LBD was subcloned into the pG4M derived plasmid as a Gal fusion protein. Transient transfection experiments for the analysis of VDR activation were performed in 48 wells plates, using a standard calcium phosphate coprecipitation technique as described (11). 293 EBNA cells were seeded (6.0×10^4 cells per well) and incubated for 24 hours at 37° C. in medium containing Dulbecco medium (DMEM+1 g/L glucose), 10% FCS, gentamycine and 1 mg/ml G418 (geneticin). 293 EBNA cells were transiently transfected with 12.5 ng of Gal-4-VDR LBD plasmid, 10 ng of UAS-TATA-luciferase reporter plasmid, and 37.5 ng of PCH110 internal control recombinant expressing β-galactoside plasmid. After cells were incubated for 8 hours at 37° C., the medium was replaced and the compounds were added in optimized serial dilutions. After 20 hours at 37° C., cells were washed with PBS and harvested in Passiv lysis buffer (Promega). The cell lysates were assayed for lusiferase and β-galactosidase activity. Luciferase activity for each sample was normalized to β-galactosidase activity. Cells were treated with 1α, 25(OH)2D3, compound A, and compound B. All experiments were performed in duplicates.
In general terms: In a reporter assay the amount or activity of a reporter protein is the signal.

Read-outs that look alike come from different tables or passages of the source.

As for `C=C1/C(=C\C=C2/CCC[C@]3(C)[C@@H]([C@H](C)CCCC(C)(C)O)CC[C@@H]23)C[C@@H](O)C[C@@H]1O` [1α,25(OH)2D3, reference compound], the “dose at which the effect on serum calcium levels became significant / caused hypercalcemia” value in series [1] is 1 µg/kg.
With `C=C1/C(=C\C=C2/CCC[C@@]3(C)[C@H]2CC[C@@H]3[C@]2(C)C[C@H](CC(C)(C)O)CO2)C[C@@H](O)C[C@@H]1O` [compound A, (1R,3S,5Z)-5-((E)-2-((1S,3aS,7aS)-hexahydro-1-((2S,4S)-tetrahydro-4-(2-hydroxy-2-methylpropyl)-2-methylfuran-2-yl)-7a-methyl-1H-inden-4(7aH)-ylidene)ethylidene)-4-methylenecyclohexane-1,3-diol], the “dose at which the effect on serum calcium levels became significant / caused hypercalcemia” value in series [1] (male, C57BL/6J, 4 days) was 2 µg/kg. In addition, in series [1], the “effect on serum calcium levels compared with 1α,25(OH)2D3” value is given as “weaker effect on serum calcium levels”. The “transcriptional activities of human VDR induced, times more efficiently than 1α,25(OH)2D3” value on human VDR (at 10^−10 M, 293 EBNA cells, luciferase normalized to β-galactosidase) worked out at 12 times. Besides, the “VDR agonist character” value at human VDR is “superagonist activity”.
On to `C=C1/C(=C\C=C2/CCC[C@@]3(C)[C@H]2CC[C@@H]3[C@]2(C)C[C@@H](CC(C)(C)O)CO2)C[C@@H](O)C[C@@H]1O` [compound B, (1R,3S,5Z)-5-((E)-2-((1S,3aS,7aS)-hexahydro-1-((2S,4R)-tetrahydro-4-(2-hydroxy-2-methylpropyl)-2-methylfuran-2-yl)-7a-methyl-1H-inden-4(7aH)-ylidene)ethylidene)-4-methylenecyclohexane-1,3-diol], for which, on human VDR, the “VDR agonist character” value is reported as “behaves like 1α,25(OH)2D3”.
